Like-named read-outs stand apart in the source and are kept apart here.
What was measured:
[1] = test system: pheromone-signaling pathway (Fus1-eGFP) in MATa cells; test: Pheromone signaling assay, Fus1-GFP expression and shmoo phenotype; type: cell-based, Saccharomyces cerevisiae; settings: BY4741 fus1::eGFP, 60 μM peptide (20 μM for α-factor), 3h
Method: Finally, the activity of the α-factor embedded in the peptides was evaluated by activation of the pheromone-signaling pathway in MATa cells of S. cerevisiae. We monitored the pheromone signaling activity by following the expression of the GFP-labeled Fus1 protein. Fus1 is among the proteins with the highest pheromone-induced expression and is required for cell-cell fusion during mating. […] The observed phenotype was consistent with the activation of signaling showing a mating protrusion, often called “shmoo” as well as the absence of budding due to inhibition of the Cdc28 cyclin [35, 36].
Fig 5 Pheromone activity. The pheromone signaling pathway is confirmed by the expression of Fus1-GFP, characteristic “shmoo” phenotype and the absence of budding observed in differential interference contrast (DIC) bright field. Concentrations were 20 μM for α-factor and 60 μM for all other peptides. The negative control was water without any peptide.
Pheromone signaling induction in Saccharomyces cerevisiae was measured by induction of eGFP fluorescence in a BY4741 strain containing the Fus1-eGFP construct in place of the wild type Fus1 (MATa his3Δ1 leu2Δ0 met15Δ0 ura3Δ0 fus1::eGFP HIS3MX6, obtained from the yeast GFP collection). The BY4741 fus1::eGFP strain was grown overnight in YPD to mid-log phase and diluted to 10^6 cells/mL. Samples were treated with the respective peptide concentrations and incubated for 3h before mixing 1:1 with low-diffusivity agarose suspended on a covered glass slide. Images were taken with an Olympus FV10 confocal microscope using a 60x objective with […]. Images were analyzed using Fiji (www.fiji.sc). The only modifications applied to the images were separation of the bright field and GFP channels, adjustment of brightness and contrast to 50% and addition of scale bars.

[2] = test system: Escherichia coli strain DH5α; test: microbe, parasite or virus in culture; type: cell-based
From the text: If CPP, DNA binding and AMP activities are compatible, the designed peptides should inhibit bacterial growth. Here we exposed E. coli DH5α cells to varying low concentrations of the designed peptides as well as several controls (see Fig 4). […] To test whether α-factor was important for AMP activity we also tested pure α-factor, pure NLS, the optimized NLS fitting CPP rules (NLS-CE) and the Iztli-1 peptide, a previously reported peptide with an embedded α-factor specifically designed to have antibacterial activity. […] A linear trend could be observed between concentration and growth inhibition (regression lines with standard deviations shown in Fig 6). […] The minimal inhibitory concentrations for E. coli are reported in Table 2 (growth curves are shown in S4 Fig).
Fig 6 Antibacterial activity. DH5α E. coli cells were treated with varying concentrations of peptides ranging from 0 to 16 μM for the peptides and 0 to 48 μM for Ampicillin. The relative area under the growth curve measured the growth inhibition. Measurements from four repetitions distributed onto two different plates are shown as dots colored by their respective concentrations. Linear regressions are shown as blue lines and their respective standard errors as blue shades. Dashed lines indicate the mean area under the curve for the H2O controls and its 50% value respectively. Minimal inhibitory concentrations to achieve 50% or 100% of cell growth inhibition are reported.
Escherichia coli strain DH5α was grown for 12 hours to mid-log phase and diluted to 8·10^5 cells/ml by using the reference OD obtained by absorption spectroscopy. Each sample 100μL culture was treated with 50μL solution containing the respective peptide in the desired concentration or water in the case of the controls. Growth curves were measured on two 96 well half area plates with two replicates each followed for 24h using a plate reader (Synergy, USA). In order to minimize plate-specific effects due to variations in loading time or initial cell numbers, different plates measurements were normalized by the time-point where the water control samples reached their half-maximal OD before combining. The respective minimum from each growth curve was subtracted from the normalized data from individual or combined plates. Areas under the curves were obtained by applying a linear interpolation to the OD curves, which was then integrated exactly. Growth rates were obtained by log-transforming the growth curves, identifying the exponential phase by the linear parts in that log-transformation (OD600 between 0.05 and 0.5) and performing a linear regression in the exponential phase with the slope denoting the respective growth rate. All mentioned methodology was implemented in R (www.r-project.org) and is available as open source at http://github.com/cdiener/dcf.
Using the slope of the linear regressions determined in these experiments, we estimated the minimal inhibitory concentration (MIC) for E. coli of our 3 CPP designed peptides (α-NLS-C, NLS-α-CE and chimera) and tested it experimentally.

[3] = Circular dichroism, secondary structure content (CONTIN/LL); type: physicochemical; settings: for Secondary Structure Random coil / Secondary Structure α-Helix / Secondary Structure β-Sheet: 0.3mg in 1mL, 20°C, far-UV CD, CONTIN/LL
Method: We studied the structural properties of the peptides in vitro, using circular dichroism (see Materials and Methods). The far-UV CD spectra for NLS-CE, NLS-α and NLS-α-CE in water matched the characteristics of a random coil conformation.
Circular dichroism spectra were recorded on a ChirascanTM CD Spectrometer (Applied Photophysics, UK) equipped with a peltier temperature controller. 0.3mg of each peptide was dissolved in 1mL of water or 50% aqueous trifluoroethanol and placed in quartz cuvettes of 0.1cm path length. Far-UV CD spectra were collected from 185 to 250 nm at 20°C. Spectra were averaged over 5 scans and the averaged blank spectra of solvents were subtracted. Ellipticity is reported as mean residue molar ellipticity and recorded in terms of molar elipticity [θ] (deg cm^2 dmol^−1). CONTIN/LL within the CDPro analysis software program was used to estimate the secondary structure content of the peptides.

pGREG546 plasmid = test: Electrophoretic mobility shift assay (EMSA), DNA retention; type: binding; settings: for DNA binding in EMSA, in words: 1μg pGREG546, DNA to peptide charge ratio 1:1 or 1:4, 30 minutes
From the text: To test the ability of the designed peptides to bind nucleic acids, we evaluated by electrophoretic mobility shift assays (EMSAs) the retention of DNA by the designed peptides. Each EMSA was executed with peptide quantities that were multiples of the DNA to peptide charge ratio. A DNA to peptide charge ratio of 1:1 is represented by the number of positive charges of the peptide required to neutralize the negative charges of the DNA backbone. Retention in the gel is an indirect measure of the fraction of positive charges within the peptide participating in binding the DNA molecules. All EMSA assays were performed using the yeast plasmid pGREG546. As negative control, pGREG546 without any peptide was used, and as positive control the known DNA-binding cell penetrating peptide MPG was used. […] However, retention in the gel was observed when NLS was joined to any larger peptide fragment.
Fig 4 DNA binding. (A) Quantification of DNA retention obtained from three independent electrophoretic mobility shift assays. All measurements are shown and horizontal bars denote the sample mean. Representative gels are shown in (B-C).
1μg of pGREG546 plasmid was pre-incubated with the required quantity of each peptide to result in a 1:1 or 1:4 peptide charge to DNA charge ratio. Samples were incubated for 30 minutes and loaded on a 1% Agarose gel in SB buffer. DNA affinity was quantified by measuring the mean pixel intensity of the DNA bands with Fiji (http://fiji.sc) and normalizing to the intensity range between an empty spot on the gel and the intensity of the pGREG546 plasmid without any added peptide. Analysis scripts for the EMSA experiments as well as the raw data can be found with the distributed source code at http://bis.ifc.unam.mx/software/dcf.

[4] = test system: Escherichia coli strain DH5α; type: cell-based; settings: 12 h
[5] = E. coli DH5α, peptides 0 to 16 μM

| Compound | pheromone signaling activity (Fus1-GFP expression, phenotype) [1] | Secondary Structure Random coil ([3]; 50% TFE) [%] | Secondary Structure α-Helix ([3]; 50% TFE) [%] | Secondary Structure β-Sheet ([3]; 50% TFE) [%] | Secondary Structure Random coil ([3]; water) [%] | Secondary Structure α-Helix ([3]; water) [%] | Secondary Structure β-Sheet ([3]; water) [%] | DNA binding in EMSA, in words (pGREG546 plasmid) | antibacterial activity against E. coli, in words [2, 5] | also measured |
| --- | --- | --- | --- | --- | --- | --- | --- | --- | --- | --- |
| PKKKRKVWHWLQLKPGQPMY [NLS-α] | significant induction of expression of Fus1-GFP | 59 | 6 | 35 | 67 | 5 | 28 |  |  | concentration showing partial growth inhibition [2, 5]: 4 µM; aggregation suggested by decrease in negative ellipticity ([3]; 50% TFE, CD spectra): TFE promoted aggregation of the peptides |
| CC1(C)S[C@@H]2[C@H](NC(=O)[C@H](N)c3ccccc3)C(=O)N2[C@H]1C(=O)O [Ampicillin, reference compound] |  |  |  |  |  |  |  |  |  | MIC ([2]; Escherichia coli, E. coli DH5α, growth curves followed for 24h, relative area under the growth curve, read-out: E. coli MIC for 50% inhibition): > 48 µM; MIC ([2]; Escherichia coli, E. coli DH5α, predicted from linear regression and tested experimentally, read-out: E. coli MIC for 100% inhibition): 100 µM |
| QPKKKRKV [NLS, reference compound] |  |  |  |  |  |  |  | not capable of binding DNA in low concentrations | no antibacterial activity |  |
| WHWLQLKPGQPMY [α-factor, mating pheromone α-factor from S. cerevisiae, purchased from Sigma-Aldrich] |  |  |  |  |  |  |  | weak ability to bind DNA | no antibacterial activity | DNA retention (pGREG546 plasmid; 1:4 DNA to peptide charge ratio, 1μg pGREG546, 30 minutes, 1% agarose gel): around 60% |
| CSCC[C@H](NC(=O)[C@@H]1CCCN1C(=O)[C@H](CCC(N)=O)NC(=O)CNC(=O)[C@@H]1CCCN1C(=O)[C@H](CCCCN)NC(=O)[C@H](CC(C)C)NC(=O)[C@H](CCC(N)=O)NC(=O)[C@H](CC(C)C)NC(=O)[C@H](Cc1c[nH]c2ccccc12)NC(=O)[C@H](Cc1c[nH]cn1)NC(=O)[C@H](Cc1c[nH]c2ccccc12)NC(=O)[C@H](Cc1ccccc1)NC(=O)[C@H](CCCNC(=N)N)NC(=O)[C@H](CC(N)=O)NC(=O)[C@H](CC(C)C)NC(=O)[C@H](Cc1ccccc1)NC(=O)[C@@H](N)CCCCN)C(=O)N[C@@H](Cc1ccc(O)cc1)C(=O)O [Iztli-1, reference compound] | same phenotype |  |  |  |  |  |  | increased its affinity for DNA | very similar E. coli growth inhibition as NLS-α | MIC ([2]; DH5α, 24 h, read-out: E. coli MIC for 50% inhibition): 8 µM; E. coli MIC for 100% inhibition [4]: 20 µM |
| WRFVWMNPKKKRKV [NLS-CE, optimized NLS fitting CPP rules] |  | 61 | 5 | 34 | 64 | 6 | 31 | effective DNA-binding activity | partial growth inhibition |  |
